Measured values published in ChEMBL document CHEMBL1641539 (Bioorg Med Chem Lett, 2011).

Columns and labels:
[1] = system: Tyrosine-protein kinase ABL1 (Homo sapiens), P00519 [Q252H]; test: Inhibition of human Abl Q252H mutant at 10 uM after 60 mins by TR-FRET assay; values are per cent of control
[2] = biological target: MAP kinase-activated protein kinase 3 (Homo sapiens) (UniProt Q16644); test: Inhibition of human MAPKAP-K3 at 10 uM after 60 mins by TR-FRET assay; values are per cent of control
[3] = biological target: Serine/threonine-protein kinase TAO2 (Homo sapiens) (UniProt Q9UL54); test: Inhibition of human TAO2 at 10 uM after 60 mins by TR-FRET assay; values are per cent of control
[4] = biological target: Serine/threonine-protein kinase TAO3 (Homo sapiens) (UniProt Q9H2K8); test: Inhibition of human TAO3 at 10 uM after 60 mins by TR-FRET assay; values are per cent of control
[5] = biological target: cGMP-dependent protein kinase 1 (Homo sapiens) (UniProt Q13976); test: Inhibition of human PKG1beta at 10 uM after 60 mins by TR-FRET assay; values are per cent of control
[6] = biological target: Ephrin type-A receptor 2 (Homo sapiens) (UniProt P29317); test: Inhibition of human EphA2 at 10 uM after 60 mins by TR-FRET assay; values are per cent of control
[7] = biological target: Serine/threonine-protein kinase PLK3 (Homo sapiens) (UniProt Q9H4B4); test: Inhibition of human Plk3 at 10 uM after 60 mins by TR-FRET assay; values are per cent of control
[8] = biological target: SRSF protein kinase 1 (Homo sapiens) (UniProt Q96SB4); test: Inhibition of human SRPK1 at 10 uM after 60 mins by TR-FRET assay; values are per cent of control
[9] = biological target: Activin receptor type-1B (Homo sapiens) (UniProt P36896); test: Inhibition of human ALK4 at 10 uM after 60 mins by TR-FRET assay; values are per cent of control
[10] = biological target: Serine/threonine-protein kinase BRSK1 (Homo sapiens) (UniProt Q8TDC3); test: Inhibition of human BrSK1 at 10 uM after 60 mins by TR-FRET assay; values are per cent of control
[11] = biological target: Cyclin-dependent kinase 7/ cyclin H (Homo sapiens) (UniProt P51946+P50613); test: Inhibition of human CDK7/cyclinH/MAT1 at 10 uM after 60 mins by TR-FRET assay; values are per cent of control
[12] = biological target: Myosin light chain kinase, smooth muscle (Homo sapiens) (UniProt Q15746); test: Inhibition of human MLCK at 10 uM after 60 mins by TR-FRET assay; values are per cent of control
[13] = biological target: Serine/threonine-protein kinase TAO1 (Homo sapiens) (UniProt Q7L7X3); test: Inhibition of human TAO1 at 10 uM after 60 mins by TR-FRET assay; values are per cent of control
[14] = biological target: Fibroblast growth factor receptor 2 (Homo sapiens) (UniProt P21802); test: Inhibition of human FGFR2 at 10 uM after 60 mins by TR-FRET assay; values are per cent of control
[15] = biological target: ALK tyrosine kinase receptor (Homo sapiens) (UniProt Q9UM73); test: Inhibition of human ALK at 10 uM after 60 mins by TR-FRET assay; values are per cent of control
[16] = biological target: Serine/threonine-protein kinase STK11 (Homo sapiens) (UniProt Q15831); test: Inhibition of human LKB1 at 10 uM after 60 mins by TR-FRET assay; values are per cent of control
[17] = biological target: Serine/threonine-protein kinase PAK 6 (Homo sapiens) (UniProt Q9NQU5); test: Inhibition of human PAK6 at 10 uM after 60 mins by TR-FRET assay; values are per cent of control
[18] = biological target: T1, Cyclin-dependent kinase 5/CDK5 activator 1 (Homo sapiens) (UniProt Q00535+Q15078); test: Inhibition of human CDK5/p35 at 10 uM after 60 mins by TR-FRET assay; values are per cent of control
[19] = biological target: Interleukin-1 receptor-associated kinase 1 (Homo sapiens) (UniProt P51617); test: Inhibition of human IRAK1 at 10 uM after 60 mins by TR-FRET assay; conditions: values are per cent of control
[20] = system: Mast/stem cell growth factor receptor Kit (Homo sapiens), P10721 [D816V]; test: Inhibition of human c-Kit D816V mutant at 10 uM after 60 mins by TR-FRET assay; values are per cent of control
[21] = biological target: NUAK family SNF1-like kinase 1 (Homo sapiens) (UniProt O60285); test: Inhibition of human ARK5 at 10 uM after 60 mins by TR-FRET assay; values are per cent of control
[22] = biological target: Fibroblast growth factor receptor 1 (Homo sapiens) (UniProt P11362); test: Inhibition of human FGFR1 at 10 uM after 60 mins by TR-FRET assay; values are per cent of control
[23] = biological target: Serine/threonine-protein kinase D1 (Homo sapiens) (UniProt Q15139); test: Inhibition of human PKCmu at 10 uM after 60 mins by TR-FRET assay; values are per cent of control
[24] = biological target: Ephrin type-A receptor 7 (Homo sapiens) (UniProt Q15375); test: Inhibition of human EphA7 at 10 uM after 60 mins by TR-FRET assay; values are per cent of control
[25] = biological target: Protein-tyrosine kinase 6 (Homo sapiens) (UniProt Q13882); test: Inhibition of human BRK at 10 uM after 60 mins by TR-FRET assay; values are per cent of control
[26] = biological target: T1, Cyclin-dependent kinase 5/CDK5 activator 1 (Homo sapiens); test: Inhibition of human CDK5/p25 at 10 uM after 60 mins by TR-FRET assay; values are per cent of control
[27] = biological target: Serine/threonine-protein kinase Nek7 (Homo sapiens) (UniProt Q8TDX7); test: Inhibition of human NEK7 at 10 uM after 60 mins by TR-FRET assay; values are per cent of control

T1 sequence (Q00535 whole entry): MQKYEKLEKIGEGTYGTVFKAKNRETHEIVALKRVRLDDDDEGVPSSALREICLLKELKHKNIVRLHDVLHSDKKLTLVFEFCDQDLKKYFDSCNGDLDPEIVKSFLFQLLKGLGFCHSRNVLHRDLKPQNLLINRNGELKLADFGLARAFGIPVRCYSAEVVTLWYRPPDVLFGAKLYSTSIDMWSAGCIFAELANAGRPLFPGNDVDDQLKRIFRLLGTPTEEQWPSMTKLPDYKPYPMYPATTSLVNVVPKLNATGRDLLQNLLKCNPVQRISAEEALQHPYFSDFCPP
T1 sequence (Q15078 99-307 partner limits assumed): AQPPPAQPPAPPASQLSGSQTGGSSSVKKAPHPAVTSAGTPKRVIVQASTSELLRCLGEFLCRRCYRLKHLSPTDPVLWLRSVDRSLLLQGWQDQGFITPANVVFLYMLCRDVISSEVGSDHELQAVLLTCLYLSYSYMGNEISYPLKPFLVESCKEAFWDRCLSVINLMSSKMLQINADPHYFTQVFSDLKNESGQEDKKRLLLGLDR
Sequence of Serine/threonine-protein kinase PLK3 (Homo sapiens) (Q9H4B4 whole entry, looked up): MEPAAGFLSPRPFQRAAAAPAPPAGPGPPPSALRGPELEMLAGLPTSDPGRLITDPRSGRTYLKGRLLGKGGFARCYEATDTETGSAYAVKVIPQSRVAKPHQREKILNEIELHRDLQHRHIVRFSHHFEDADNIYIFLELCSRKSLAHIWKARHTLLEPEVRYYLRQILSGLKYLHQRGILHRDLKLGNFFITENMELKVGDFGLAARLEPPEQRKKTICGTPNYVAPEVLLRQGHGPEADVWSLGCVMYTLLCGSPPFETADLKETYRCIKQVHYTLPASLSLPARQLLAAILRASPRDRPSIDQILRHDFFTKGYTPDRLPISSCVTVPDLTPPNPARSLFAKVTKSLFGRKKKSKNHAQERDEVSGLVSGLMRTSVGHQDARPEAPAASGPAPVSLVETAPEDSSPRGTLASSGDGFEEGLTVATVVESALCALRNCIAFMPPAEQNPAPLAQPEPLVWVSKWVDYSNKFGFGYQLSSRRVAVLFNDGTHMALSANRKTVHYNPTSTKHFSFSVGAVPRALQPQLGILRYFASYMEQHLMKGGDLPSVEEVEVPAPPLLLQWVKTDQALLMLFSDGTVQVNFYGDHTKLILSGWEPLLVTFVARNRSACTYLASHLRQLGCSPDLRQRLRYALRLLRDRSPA
Sequence of Mast/stem cell growth factor receptor Kit (Homo sapiens), P10721 [D816V] (P10721 whole entry D816V): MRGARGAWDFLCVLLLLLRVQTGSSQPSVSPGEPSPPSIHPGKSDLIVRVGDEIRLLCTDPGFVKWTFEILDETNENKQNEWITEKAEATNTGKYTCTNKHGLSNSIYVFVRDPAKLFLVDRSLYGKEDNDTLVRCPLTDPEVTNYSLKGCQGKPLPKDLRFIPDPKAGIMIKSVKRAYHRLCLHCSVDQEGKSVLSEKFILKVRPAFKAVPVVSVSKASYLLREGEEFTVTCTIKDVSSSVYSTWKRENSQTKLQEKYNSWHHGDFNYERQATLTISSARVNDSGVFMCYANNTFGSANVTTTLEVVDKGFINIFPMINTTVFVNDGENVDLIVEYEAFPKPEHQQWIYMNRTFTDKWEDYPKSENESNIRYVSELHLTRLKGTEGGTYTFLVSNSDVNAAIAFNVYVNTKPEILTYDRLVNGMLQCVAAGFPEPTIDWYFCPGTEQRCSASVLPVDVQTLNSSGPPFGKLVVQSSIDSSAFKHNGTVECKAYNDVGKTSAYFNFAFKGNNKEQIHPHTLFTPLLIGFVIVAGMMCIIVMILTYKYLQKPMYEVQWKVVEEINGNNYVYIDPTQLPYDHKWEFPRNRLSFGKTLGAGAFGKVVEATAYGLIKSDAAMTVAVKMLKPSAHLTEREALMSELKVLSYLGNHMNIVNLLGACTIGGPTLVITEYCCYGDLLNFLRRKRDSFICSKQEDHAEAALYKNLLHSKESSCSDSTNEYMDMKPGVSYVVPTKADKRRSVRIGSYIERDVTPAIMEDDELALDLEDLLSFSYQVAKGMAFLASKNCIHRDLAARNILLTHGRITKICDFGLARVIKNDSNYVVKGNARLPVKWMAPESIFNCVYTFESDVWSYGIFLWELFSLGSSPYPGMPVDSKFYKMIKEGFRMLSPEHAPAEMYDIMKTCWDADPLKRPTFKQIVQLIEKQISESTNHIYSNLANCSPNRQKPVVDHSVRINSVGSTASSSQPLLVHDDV
Sequence of Ephrin type-A receptor 7 (Homo sapiens) (Q15375 28-998 limits assumed): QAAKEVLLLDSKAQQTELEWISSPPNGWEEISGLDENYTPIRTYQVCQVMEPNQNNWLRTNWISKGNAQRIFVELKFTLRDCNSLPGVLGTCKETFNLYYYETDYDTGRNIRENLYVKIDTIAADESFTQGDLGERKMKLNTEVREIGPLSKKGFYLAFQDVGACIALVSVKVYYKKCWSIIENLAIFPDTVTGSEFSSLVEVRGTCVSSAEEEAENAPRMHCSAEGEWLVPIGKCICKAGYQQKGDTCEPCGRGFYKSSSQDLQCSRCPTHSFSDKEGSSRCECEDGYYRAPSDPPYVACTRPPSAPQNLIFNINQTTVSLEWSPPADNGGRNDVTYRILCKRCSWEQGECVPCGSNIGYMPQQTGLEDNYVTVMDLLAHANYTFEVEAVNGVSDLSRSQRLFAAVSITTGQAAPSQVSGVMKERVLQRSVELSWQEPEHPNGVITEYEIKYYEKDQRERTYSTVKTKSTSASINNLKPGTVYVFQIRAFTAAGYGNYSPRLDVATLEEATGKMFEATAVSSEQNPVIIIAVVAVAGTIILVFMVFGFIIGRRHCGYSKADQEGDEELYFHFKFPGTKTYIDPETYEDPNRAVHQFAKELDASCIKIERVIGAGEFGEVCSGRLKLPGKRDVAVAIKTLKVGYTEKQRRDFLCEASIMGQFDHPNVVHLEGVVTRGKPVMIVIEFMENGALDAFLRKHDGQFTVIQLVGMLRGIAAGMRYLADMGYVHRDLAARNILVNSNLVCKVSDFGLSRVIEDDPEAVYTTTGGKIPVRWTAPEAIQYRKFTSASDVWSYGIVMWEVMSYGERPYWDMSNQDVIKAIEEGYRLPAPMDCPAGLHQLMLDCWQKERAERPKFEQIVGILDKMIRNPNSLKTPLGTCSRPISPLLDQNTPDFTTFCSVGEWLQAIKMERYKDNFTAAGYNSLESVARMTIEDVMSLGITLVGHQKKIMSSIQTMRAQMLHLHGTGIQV
Sequence of Serine/threonine-protein kinase PAK 6 (Homo sapiens) (Q9NQU5 whole entry, looked up): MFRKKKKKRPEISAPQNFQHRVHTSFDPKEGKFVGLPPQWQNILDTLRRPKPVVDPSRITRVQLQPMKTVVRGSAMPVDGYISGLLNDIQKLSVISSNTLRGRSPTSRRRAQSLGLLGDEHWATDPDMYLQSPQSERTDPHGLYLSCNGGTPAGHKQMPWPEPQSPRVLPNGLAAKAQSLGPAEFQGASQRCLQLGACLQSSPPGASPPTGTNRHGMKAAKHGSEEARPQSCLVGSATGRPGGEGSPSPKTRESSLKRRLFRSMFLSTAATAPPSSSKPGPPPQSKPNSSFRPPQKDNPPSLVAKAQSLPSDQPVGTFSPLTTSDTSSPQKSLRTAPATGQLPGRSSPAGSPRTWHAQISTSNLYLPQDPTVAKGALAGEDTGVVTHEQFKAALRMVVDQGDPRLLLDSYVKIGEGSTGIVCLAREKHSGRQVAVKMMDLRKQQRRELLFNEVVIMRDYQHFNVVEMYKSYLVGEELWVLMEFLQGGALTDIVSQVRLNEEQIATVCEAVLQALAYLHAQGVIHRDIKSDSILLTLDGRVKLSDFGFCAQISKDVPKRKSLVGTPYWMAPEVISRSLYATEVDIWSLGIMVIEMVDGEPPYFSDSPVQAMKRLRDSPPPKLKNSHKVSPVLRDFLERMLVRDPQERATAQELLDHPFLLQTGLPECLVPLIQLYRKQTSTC
Sequence of Activin receptor type-1B (Homo sapiens) (P36896 whole entry): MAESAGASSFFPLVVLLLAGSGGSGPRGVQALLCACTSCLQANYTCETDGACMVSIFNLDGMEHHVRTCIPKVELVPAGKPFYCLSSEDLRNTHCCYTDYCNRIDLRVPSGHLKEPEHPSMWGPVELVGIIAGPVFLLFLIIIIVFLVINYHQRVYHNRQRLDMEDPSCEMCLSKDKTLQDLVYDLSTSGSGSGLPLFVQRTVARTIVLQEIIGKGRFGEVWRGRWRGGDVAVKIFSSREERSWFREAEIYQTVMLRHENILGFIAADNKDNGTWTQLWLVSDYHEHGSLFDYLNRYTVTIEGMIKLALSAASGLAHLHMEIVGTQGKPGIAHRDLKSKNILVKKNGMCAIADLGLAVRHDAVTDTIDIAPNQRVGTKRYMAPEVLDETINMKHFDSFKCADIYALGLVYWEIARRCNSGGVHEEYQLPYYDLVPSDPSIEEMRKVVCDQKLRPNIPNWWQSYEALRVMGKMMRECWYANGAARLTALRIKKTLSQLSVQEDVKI
Sequence of Interleukin-1 receptor-associated kinase 1 (Homo sapiens) (P51617 whole entry, looked up): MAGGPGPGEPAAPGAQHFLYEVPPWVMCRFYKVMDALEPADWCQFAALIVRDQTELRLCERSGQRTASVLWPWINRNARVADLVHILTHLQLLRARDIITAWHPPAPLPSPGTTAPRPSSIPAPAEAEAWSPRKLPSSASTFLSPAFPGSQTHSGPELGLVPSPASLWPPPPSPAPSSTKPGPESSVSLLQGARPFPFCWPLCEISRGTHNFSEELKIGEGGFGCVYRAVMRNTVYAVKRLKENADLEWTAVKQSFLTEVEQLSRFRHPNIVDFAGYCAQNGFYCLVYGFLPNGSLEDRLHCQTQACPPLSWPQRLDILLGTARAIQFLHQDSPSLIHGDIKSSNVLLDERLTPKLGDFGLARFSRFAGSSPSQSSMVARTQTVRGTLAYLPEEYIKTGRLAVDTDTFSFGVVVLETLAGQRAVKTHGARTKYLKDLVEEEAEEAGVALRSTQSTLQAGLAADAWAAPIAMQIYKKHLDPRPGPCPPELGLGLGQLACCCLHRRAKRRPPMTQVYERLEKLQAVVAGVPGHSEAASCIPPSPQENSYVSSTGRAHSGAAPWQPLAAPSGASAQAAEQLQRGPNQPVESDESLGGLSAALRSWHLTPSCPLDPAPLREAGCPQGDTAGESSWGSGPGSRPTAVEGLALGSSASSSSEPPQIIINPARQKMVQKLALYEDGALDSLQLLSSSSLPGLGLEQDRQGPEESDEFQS

residual activity [1]: 111%
residual activity [2]: 112%
residual activity [3]: 103%
residual activity [4]: 91%
residual activity [5]: 109%
residual activity [6]: 102%
residual activity [7]: 106%
residual activity [8]: 93%
residual activity [9]: 112%
residual activity [10]: 102%
residual activity [11]: 113%
residual activity [12]: 103%
residual activity [13]: 104%
residual activity [14]: 92%
residual activity [15]: 101%
residual activity [16]: 123%
residual activity [17]: 103%
residual activity [18]: 96%
residual activity [19]: 113%
residual activity [20]: 113%
residual activity [21]: 103%
residual activity [22]: 98%
residual activity [23]: 104%
residual activity [24]: 65%
residual activity [25]: 101%
residual activity [26]: 112%
residual activity [27]: 112%
SMILES: S=c1[nH]nc(-c2ccncc2)n1-c1ccc2ccccc2c1
